{"source": "patent US10435399B2", "about": "“HDAC6 inhibitory heterocyclic compound” (TAKEDA PHARMACEUTICAL COMPANY LIMITED, priority 2017, dated 2019)", "key": {"HDAC6 enzyme": {"molecular_target": "T1, HDAC6 enzyme (Homo sapiens, UniProt Q9UBN7)", "T1 construct": "transducing full length HDAC6 gene into Sf-9 insect cells; GST; purchased SignalChem; host or cells: Sf-9 insect cells", "T1 sequence (Q9UBN7 1-1215)": "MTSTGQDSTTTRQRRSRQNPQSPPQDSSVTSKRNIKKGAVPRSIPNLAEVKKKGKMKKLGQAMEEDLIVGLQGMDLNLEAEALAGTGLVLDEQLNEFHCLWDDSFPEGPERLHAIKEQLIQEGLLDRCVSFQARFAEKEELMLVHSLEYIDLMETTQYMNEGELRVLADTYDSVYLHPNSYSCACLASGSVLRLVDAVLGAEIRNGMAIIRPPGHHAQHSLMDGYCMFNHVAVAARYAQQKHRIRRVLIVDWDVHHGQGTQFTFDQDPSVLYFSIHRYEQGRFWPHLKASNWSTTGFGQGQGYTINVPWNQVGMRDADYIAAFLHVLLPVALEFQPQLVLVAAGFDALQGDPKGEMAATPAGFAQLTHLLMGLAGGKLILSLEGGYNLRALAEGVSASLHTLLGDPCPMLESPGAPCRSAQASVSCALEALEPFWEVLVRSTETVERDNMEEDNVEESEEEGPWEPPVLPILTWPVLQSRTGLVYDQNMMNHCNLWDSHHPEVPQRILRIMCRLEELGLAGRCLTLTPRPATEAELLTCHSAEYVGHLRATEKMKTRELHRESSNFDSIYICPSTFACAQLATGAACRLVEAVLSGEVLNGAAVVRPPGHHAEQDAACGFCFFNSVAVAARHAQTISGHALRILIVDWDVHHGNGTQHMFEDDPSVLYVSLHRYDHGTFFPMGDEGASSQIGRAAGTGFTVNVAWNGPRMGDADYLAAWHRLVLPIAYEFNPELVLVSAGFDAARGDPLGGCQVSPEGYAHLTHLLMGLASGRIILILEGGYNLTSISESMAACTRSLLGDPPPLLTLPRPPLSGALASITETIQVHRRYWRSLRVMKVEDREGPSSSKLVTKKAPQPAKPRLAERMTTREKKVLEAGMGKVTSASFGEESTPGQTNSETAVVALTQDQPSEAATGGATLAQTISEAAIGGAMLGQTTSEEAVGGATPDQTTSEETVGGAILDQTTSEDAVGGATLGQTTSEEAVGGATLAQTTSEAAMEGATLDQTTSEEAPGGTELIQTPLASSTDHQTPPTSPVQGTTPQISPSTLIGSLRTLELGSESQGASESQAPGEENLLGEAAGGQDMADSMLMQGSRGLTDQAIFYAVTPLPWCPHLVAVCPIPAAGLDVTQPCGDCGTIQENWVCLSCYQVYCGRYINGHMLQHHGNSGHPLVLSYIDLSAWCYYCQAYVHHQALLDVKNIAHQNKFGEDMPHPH", "assay": "HDAC6 enzyme inhibitory activity (HDAC-Glo I/II Assay kit)", "format": "biochemical", "conditions": "10 μM; wells without enzyme = 100% inhibition; read-out: HDAC6 inhibitory rate (%) (10 μM)", "outline": "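Test compound is preincubated 60 min at RT with full-length insect-cell HDAC6 in Tris-HCl pH 7.5 with 135 mM NaCl and 1 mM MgCl2. A 20 min room-temperature HDAC-Glo reaction follows, with luminescent read-out.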"}, "TK6 cells": {"test_system": "TK6 cells", "assay": "γH2AX assay using TK6 cells", "format": "cell-based, Human", "conditions": "4 hr treatment, up to 100 μM", "protocol": "γH2AX Assay Using TK6 Cells\nHuman lymphoblasts-derived TK6 cells were treated with the compounds of Examples 489, 512 or 519 at 0, 10, 30 or 100 μmol/L (final concentration) for 4 hr, and the presence or absence of DNA damage was evaluated by measuring phosphorylation of histone H2AX (γH2AX) as a marker. In addition, cytotoxicity after 24-hr treatment was also evaluated.\nExponentially growing TK6 cells were prepared at the cell density of 4×10^5 cells/mL in a culture medium, and was added to a 96-well plate by 100 μL/well. A test compound solution (2% DMSO) prepared using a culture solution, having twice the concentration on the above-mentioned final concentrations, was added thereto by 100 μL/well. This plate was incubated at 37° C., the cell suspension after 4 hr was sampled, and stained using In Vitro MultiFlow™ DNA Damage Kit (Litron), and H2AX phosphorylation level in each nucleus was measured using a flow cytometer and average value was calculated. The H2AX phosphorylation level in the concurrent vehicle control group was also measured and average value was calculated. The rate of change in the H2AX phosphorylation level in the treatment groups relative to that in the control group was calculated, and Dunnett test (significance level: two-tailed 1%) was performed. In addition, the cell suspension after 24 hr treatment was sampled, and the nucleus number was measured, and variation in the nucleus number in the treatment groups relative to that in the concurrent vehicle control group was used as an indicator of cytotoxicity. […] Therefore, the potential of the compounds for DNA strand breakage was judged to be negative under this test condition."}, "[1]": {"test_system": "acetylated tubulin in brain (hippocampus)", "assay": "Increase in acetylated tubulin in brain (hippocampus ELISA)", "format": "in vivo, C57BL/6J mouse", "conditions": "mouse hippocampus, oral 3 mg/kg, 1 h after administration, vs vehicle", "protocol": "Increase in Acetylated Tubulin in Brain\nA drug was suspended in 0.5% methyl cellulose to prepare a suspension for administration, having a concentration shown in Table 3. The suspension was orally administered into 8 to […] male C57BL/6J mouse, and after the passage of the time shown in Table 3, the brain was taken out, and hippocampus was obtained. The hippocampus was homogenized under RIPA extract (Wako) to which protease inhibitor (Thermo) and phosphatase inhibitor (Thermo) were added, and centrifuged in 15,000 g for 15 min to prepare a protein extract. The acetylated tubulin and total tubulin in the extract were detected by the following ELISA method. Tubulin antibody (Sigma) was immobilized on 96-well plate (Microlite2+, Thermo), and the plate was stored at 4° C. […] The plate was washed, HRP substrate was added thereto, and the luminescence was measured using a plate reader. The acetylated tubulin and total tubulin were quantified from logistics curve based on dilution series using the mouse hippocampus tissue extract, and the acetylated tubulin relative to total tubulin was calculated, and evaluated as an relative tubulin acetylation level. […] After F test for vehicle group and drug group, the significant difference between the two groups was analyzed by Student t-test or Welch test (indicated as * p<0.05, ** p<0.01). […]"}, "tauopathy mouse model": {"test_system": "tauopathy mouse model", "conditions": "cited from earlier work"}, "bone-marrow cells": {"test_system": "bone-marrow cells", "assay": "Micronucleus test in rats (bone-marrow cells)", "format": "in vivo, rats (Crl:CD(SD))", "conditions": "rat, in vivo, po", "protocol": "Combination Assay of Micronucleus Test and Comet Assay in Rats […] Bone-marrow smear for micronucleus analysis was prepared as follows. Femur was cut at both ends, and washed with fetal bovine serum (FBS) in a centrifuging tube, and the obtained bone-marrow fluid was centrifuged for 5 min at room temperature. The supernatant was removed, and the cell sediment was suspended in the remaining small amount of the supernatant. A part of the suspension was dropped on a glass slide, and a cover glass was placed thereon to give a bone-marrow smear. The smear was dried well, and fixed with methanol for 5 min. The bone-marrow smear of negative control, that of treatment groups as well as the previously prepared bone-marrow smear of positive control group were encoded, and observed by the blind method. An acridine orange solution (40 μg/mL) was dropped (several drops) to the smear just before observation, and a cover glass was placed thereon. […] In addition, as an index of growth inhibitory effect on bone-marrow cell, total of 500 erythrocytes [immature erythrocytes+mature erythrocytes (ME)] per individual were observed, and immature erythrocyte rate (IE %) relative to the total number of erythrocytes was calculated."}, "[2]": {"test_system": "liver and glandular stomach cells", "assay": "Comet assay in rats (liver and glandular stomach)", "format": "in vivo, rats (Crl:CD(SD))", "conditions": "3 days, test article = compound of Example 489", "protocol": "Combination Assay of Micronucleus Test and Comet Assay in Rats\nThe compound of Example 489 at doses of 1000 and 2000 mg/kg was orally administered to 8 to 9-week-old rats (Crl:CD(SD), five/group) once daily for 3 days, and micronucleus induction was evaluated in bone-marrow cells, and DNA damage was evaluated by DNA fragmentation of cell nucleus in the liver and glandular stomach.\nSample for comet assay was obtained from liver and glandular stomach by the following procedures. A part of left lateral lobe of liver was washed well with a cooled mincing buffer solution (Hanks' balanced salt solution containing 20 mmol/L EDTA and 10 vol % DMSO, pH7.5), and minced finely with dissecting scissors. This sample was kept on ice for 15 to 30 seconds, the precipitated large cell mass was removed, and the obtained cell suspension was kept on ice. Glandular stomach was added to a cooled mincing buffer solution, and kept on ice for 15 to 30 min. Then, the surface epithelium was removed by scraping gently twice, the stomach mucosa was washed well with a cooled mincing buffer solution, and the mucosa surface was taken out by scraping carefully four times or five times. This was kept on ice for 15 to 30 seconds, the precipitated large cell mass was removed, and the obtained cell suspension was kept on ice.\nThe liver and glandular stomach cell suspensions prepared by the above-mentioned procedures were added to 0.5 w/v % low-melting agarose so that the concentration became 10 vol % or less, 40 μL of the suspension was dropped to MAS-coated slide (Matsunami Glass Ind., Ltd.), and fixed to give a slide sample. The slide sample was immersed in a cooled cell lysate [an aqueous solution containing 2.5 mol/L sodium chloride, 100 mmol/L EDTA, 10 mmol/L tris(hydroxymethyl)aminomethane, 10 vol % DMSO and 1 vol % Triton X-100, pH 10.0], and kept overnight under light shielding in a refrigerator (2 to 8° C.).\nThe slide sample was washed with ultrapure water, set at random into an electrophoresis apparatus filled with an alkali buffer solution (an aqueous solution containing 0.3 mol/L sodium hydroxide and 1 mmol/L EDTA, pH >13) for electrophoresis. After confirming that the sample was completely immersed, the sample was left for 20 min to unwind the strands. Next, electrophorese was performed at a constant voltage of 0.7 to 1 V/cm (current is set about 0.30 A) for 20 min (the electrophoresis apparatus was kept on ice so that the alkali buffer solution for electrophoresis was kept at a constant temperature of 10° C. or below, during from the dissociation of the strands to electrophoresis). After electrophoresis, the slide sample was immersed in a neutralizing solution [0.4 mol/L aqueous tris(hydroxymethyl)aminomethane solution, pH 7.5] for 5 min or longer. Then, the slide sample was immersed in ethanol for 5 min or longer, and air-dried. […] The slide samples for negative control, test compound and positive control groups were encoded, and analyzed by the blind method. In each individual animal, 150 of suitable cells were selected for observation using a biological microscope with fluorescence attachment at 200-fold final magnification, and analyzed by image analysis software (Comet Assay IV, Perceptive Instruments Ltd.). The degree of the DNA damage was evaluated by % tail intensity calculated automatically from image analysis software. The median of the % tail intensity was calculated in each slide sample, and the average of the median was calculated in each individual. […]"}}}
{"smiles": "CC(F)(F)C(=O)N[C@H]1[C@H](N2Cc3ccc(-c4nnc(C(F)F)o4)cc3C2=O)CCCC1(F)F", "note": "[Example 512, N-((1S,6R)-6-(6-(5-(difluoromethyl)-1,3,4-oxadiazol-2-yl)-1-oxo-1,3-dihydro-2H-isoindol-2-yl)-2,2-difluorocyclohexyl)-2,2-difluoropropanamide]", "values": [{"measurement": "inhibition at 10 µM", "setting": "HDAC6 enzyme", "value": 99, "unit": "%"}, {"measurement": "histone H2AX phosphorylation (γH2AX) resulted from DNA strand breakage", "setting": "TK6 cells", "value": "did not induce histone H2AX phosphorylation"}, {"measurement": "potential for DNA strand breakage (judgement)", "setting": "TK6 cells", "value": "negative"}, {"measurement": "relative tubulin acetylation level (acetylated tubulin relative to total tubulin)", "setting": "[1]", "value": "increase in significant tubulin acetylation level was observed"}]}
{"smiles": "CN1CCc2c(c3ccccc3n2Cc2ccc(C(=O)NO)cc2)C1", "note": "[Tubastatin A]", "values": [{"measurement": "acetylation of tubulin", "setting": "tauopathy mouse model", "value": "increases acetylation of tubulin"}, {"measurement": "therapeutic effectiveness", "setting": "tauopathy mouse model", "value": "shows therapeutic effectiveness"}]}
{"smiles": "CC[C@@]1(O)C(=O)OCc2c1cc1n(c2=O)Cc2cc3cc4c(cc3nc2-1)OCO4", "note": "[test article]", "values": [{"measurement": "micronucleated immature erythrocytes incidences (MNIE %), mean ± SD", "setting": "bone-marrow cells; 1000 mg/kg/day", "value": "0.10 ± 0.04", "unit": "%"}, {"measurement": "micronucleated immature erythrocytes incidences (MNIE %), mean ± SD", "setting": "bone-marrow cells; 2000 mg/kg/day", "value": "0.10 ± 0.03", "unit": "%"}, {"measurement": "% tail DNA, mean ± SD", "setting": "[2]; rat liver, 1000 mg/kg/day oral", "value": "0.08 ± 0.03", "unit": "%"}, {"measurement": "% tail DNA, mean ± SD", "setting": "[2]; rat liver, 2000 mg/kg/day oral", "value": "0.11 ± 0.04", "unit": "%"}, {"measurement": "% tail DNA, mean ± SD", "setting": "[2]; rat stomach, 1000 mg/kg/day oral", "value": "0.59 ± 0.22", "unit": "%"}, {"measurement": "% tail DNA, mean ± SD", "setting": "[2]; rat stomach, 2000 mg/kg/day oral", "value": "0.48 ± 0.21", "unit": "%"}]}
